From patent US20250360111A1, “COMPOSITIONS OF AGPAT4 INHIBITORS AND METHODS OF USING THEREOF TO TREAT CANCER” (The University of Hong Kong, priority 2024, published 2025)
Substitutions are numbered along the chain they refer to. pIC50: −log10 of the molar value.

Columns and labels:
[1] = tested on: MHCC97L and MHCC97H vs. Huh7 and LO2 cells; test: XTT assay, viability assay and excess over bliss synergy analysis; assay type: cell-based, human; conditions: CL26 combined with sorafenib, 48 h
Procedure: (§1) Cells (1×10^3 cells/well) were seeded in 96-well plates and cultured in complete medium for 24 h. Subsequently, sorafenib and/or CL26 was added to the culture and incubated for 48 h. The XTT tetrazolium reagent (Gold Biotechnology) and phenazine methosulfate (Thermo Fisher Scientific) were premixed and added to each well. The absorbance at 450 nm was measured using a Victor 3 microplate reader (PerkinElimer). Drug interactions were evaluated using the bliss independence model. According to this model, the expected growth inhibition (Eexp) resulting from the combination of drugs A and B was calculated using the following equation: Eexp=Ea+Eb−Ea×Eb, with Ea representing the growth inhibition caused by drug A alone and Eb representing the growth inhibition caused by drug B alone. To assess drug interactions, the difference between the observed growth inhibition (Eobs) and expected growth inhibition (Eexp) was calculated.
(§2) 1×10^4 cells were seeded in a 6-well plate and cultured in complete medium for 24 h. Subsequently, sorafenib and/or CL26 was added to the culture and incubated for 48 h. Dead cells were carefully washed with PBS, and the remaining viable cells were fixed using 4% paraformaldehyde (Sigma-Aldrich) and visualized by staining with 2% crystal violet (Sigma-Aldrich).

[2] = tested on: sorafenib-sensitive and sorafenib-resistant HepG2 cells; test: as above; assay type: cell-based, human; conditions: CL26 combined with sorafenib, 48 h
Procedure: as §1, §2

[3] = biological target: T1, Purified human AGPAT4 protein (Homo sapiens, UniProt Q9NRZ5); test: In vitro binding to AGPAT4 by gel-based ABPP (competition with IA-rhodamine); conditions: loss of IA-rhodamine fluorescence
T1 construct: The open reading frame (ORF) encoding the mRNA of AGPAT4 was cloned into pGEX-4T1; made in house; host or cells: Escherichia coli BL21
T1 sequence (Q9NRZ5 1-378): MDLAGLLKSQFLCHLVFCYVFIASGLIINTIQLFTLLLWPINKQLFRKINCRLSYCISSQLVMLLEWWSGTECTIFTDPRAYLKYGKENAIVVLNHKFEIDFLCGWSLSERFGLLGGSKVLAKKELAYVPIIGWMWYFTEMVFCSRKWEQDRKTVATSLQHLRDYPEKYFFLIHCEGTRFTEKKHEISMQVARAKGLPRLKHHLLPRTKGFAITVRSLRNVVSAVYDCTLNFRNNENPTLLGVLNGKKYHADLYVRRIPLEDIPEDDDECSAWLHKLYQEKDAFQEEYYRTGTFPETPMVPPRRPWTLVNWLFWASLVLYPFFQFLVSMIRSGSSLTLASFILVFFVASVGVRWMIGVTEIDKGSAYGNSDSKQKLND
Procedure: Purified human AGPAT4 protein (0.1 μg) was incubated with library compounds at 25 μM (unless indicated) for 1 h at room temperature, followed by incubation with IA-rhodamine (1 μM) for 1 h. Sampling buffer was added and the samples were denatured by boiling at 90° C. The samples were resolved by SDS-PAG E and fluorescence signals were captured using ChemiDoc MP (Bio-Rad) before silver staining to assess protein loading. The band fluorescence intensity was quantified using the ImageJ software.

[4] = biological target: T2, acyltransferase activity of AGPAT4 (Homo sapiens, UniProt Q9NRZ5); test: LPA to PA conversion assay; assay type: biochemical
T2 construct: The open reading frame (ORF) encoding the mRNA of AGPAT4 was cloned into the pDONR-221 donor vector; expressed in transfected cells; host or cells: Huh7 (lentiviral pEZ-Lv199-AGPAT4); also sorafenib-resistant HepG2 (endogenous AGPAT4)
T2 sequence (Q9NRZ5 1-378): T1 sequence (Q9NRZ5 1-378)
Procedure: (§3) Enzyme activity was measured by quantifying the conversion of [3H]-LPA to [3H]-PA following the protocol outlined in a previous study (43). Briefly, the enzymatic reaction was prepared by combining 10 μmol/L 18:1 Lyso PA (Avanti Polar Lipids), 50 μmol/L oleoyl CoA (Sigma-Aldrich), 1 μL 1-oleoyl-[oleoyl-9,10^−3H]-LPA (specific activity 30-60 Ci/mmol; PerkinElmer), and 1 mg/mL fatty acid-free BSA in 200 μL 100 mM Tris-HCl buffer at pH 7.4. The reaction was initiated by adding 30 μg of total protein (cell lysate) and incubating the mixture at 37° C. for 10 min. To stop the reaction, 0.5 mL of 1-butanol containing 1 M HCl was added to extract phospholipids to stop the reaction. The butanol extract was then dried under vacuum, and the LPA and PA were separated using a solvent system consisting of chloroform, methanol, acetic acid, and water (25:10:3:1). Radioactive spots were identified by comparing their migration with unlabelled LPA and PA standards and visualized using iodine vapours. The spots corresponding to [3H]-LPA and [3H]-PA were scraped and their radioactivity was measured using a Tri-Carb Liquid Scintillation Counter 4810 (PerkinElmer Life Sciences).

[5] = biological target: T3, acyltransferase activity of AGPAT4 (Homo sapiens, UniProt Q9NRZ5, C228A); test: LPA to PA conversion assay; assay type: biochemical; conditions: Huh7 cells, AGPAT4 C228A mutant
T3 construct: The open reading frame (ORF) encoding the mRNA of AGPAT4 was cloned into the pDONR-221 donor vector; expressed in transfected cells; host or cells: Huh7 (lentiviral pEZ-Lv199-AGPAT4)
T3 sequence (Q9NRZ5 1-378 C228A): T1 sequence (Q9NRZ5 1-378) with C228A
Procedure: as §3

Animal toxicity studies = assay type: in vivo, C57BL/6 mice; conditions: 1 mg/kg or 10 mg/kg intraperitoneally
Procedure: C57BL/6 mice were administered CL26 at a low dose (1 mg/kg) or high dose (10 mg/kg) intraperitoneally to evaluate potential tissue damage associated with CL26 exposure. Major organs, including the liver, spleen, pancreas, kidney, heart, and lungs, were weighed prior to fixation in 10% formalin for subsequent paraffin embedding and H& E staining. Additionally, the serum concentrations of alanine aminotransferase (ALT) and aspartate aminotransferase (AST) were measured. The above analysis was performed at the Veterinary Diagnostic Laboratory of the City University of Hong Kong.

For `O=C(CCl)NCc1ccc(-c2nc3ccccc3s2)o1` [CL26, N-[[5-(2-benzothiazolyl)-2-furanyl]methyl]-2-chloroacetamide], the “synergistic effect with sorafenib (excess over bliss scores)” value [1] was “synergistic effect was observed solely in cells with high AGPAT4-expressing MHCC97L and MHCC97H cells”, the “synergistic effect with sorafenib” value [2] was “exclusively observed in sorafenib-resistant HepG2 cells” and the pIC50 [3] was 6.12. For the same molecule, the “inhibition of acyltransferase activity (LPA to PA conversion)” value ([4]; Huh7 cells overexpressing AGPAT4 and sorafenib-resistant HepG2 cells) was “inhibition of acyltransferase activity of AGPAT4 in vitro was verified”, the “inhibition of acyltransferase activity (PA conversion assay) in tumors” value ([4]; sorafenib-resistant HCC PDX model #2) was “inhibitory effect of CL26 on acyltransferase activity in sorafenib-resistant PDX was confirmed” and the “LPA to PA conversion vs DMSO control” value [5] was “did not show difference in LPA to PA conversion”. The “blood chemistry (AST, ALT), major organ weight and histology vs control mice” value (Animal toxicity studies) was “no significant differences” and the “toxicity associated with treatment” value (Animal toxicity studies) was “minimal toxicity”.
